Assay: RP, Waters XBridge C18, 50 × 2.1 mm, 3.5 µm, 30 °C, 0.2 mL/min, estimated dead time 0.55 min; A: water + 0.1% formic acid, pH 3; B: methanol + 0.1% formic acid, pH 3; gradient (min/%B) 0/10 4/50 17/95 25/95 25.1/10 30/10
Details: stereoisomer not certain

| SMILES | LC retention time [min] |
| --- | --- |
| N#CN=C1SCCN1Cc1ccc(Cl)nc1 [Thiacloprid] | 5.8 |
| CN1COCN(Cc2cnc(Cl)s2)C1=N[N+](=O)[O-] [Thiamethoxam] | 4.1 |
| COC(=O)c1sccc1S(=O)(=O)NC(=O)Nc1nc(C)nc(OC)n1 [Thifensulfuron-methyl] | 7.2 |
| CCCC(C)C1(CC)C(=O)NC(=S)NC1=O (configuration not stated) [Thiopental] | 9 |
| COc1cccc(C2(O)CCCCC2CN(C)C)c1 (configuration not stated) [Tramadol] | 4.9 |
| O=C(O)COc1nc(Cl)c(Cl)cc1Cl [Triclopyr] | 10.3 |
| CCCN(CCC)c1c([N+](=O)[O-])cc(C(F)(F)F)cc1[N+](=O)[O-] [Trifluralin] | 16.5 |
| COc1ccc(C(CN(C)C)C2(O)CCCCC2)cc1 (configuration not stated) [Venlafaxine] | 6.2 |

The remaining lines, values ahead:

| LC retention time [min] | SMILES |
| --- | --- |
| 14.8 | O=C(Nc1ccc(Cl)cc1)Nc1ccc(Cl)c(Cl)c1 [Triclocarban] |
| 3.8 | COc1cc(Cc2cnc(N)nc2N)cc(OC)c1OC [Trimethoprim] |
| 8.7 | CC(CN(C)C)CN1c2ccccc2CCc2ccccc21 (configuration not stated) [Trimipramine] |
| 8.9 | CCOC(=O)C1CC(=O)C(=C(O)C2CC2)C(=O)C1 (configuration not stated) [Trinexapac-ethyl] |
| 6.9 | O=C1CC(C(=O)O)CC(=O)C1=C(O)C1CC1 (configuration not stated) [Trinexapac] |
| 10.8 | COc1nc(NC(=O)NS(=O)(=O)c2ccccc2C(F)(F)F)nc(C(F)(F)F)n1 [Tritosulfuron] |
| 8.1 | CCC1OC(=O)CC(O)C(C)C(OC2OC(C)C(OC3CC(C)(O)C(O)C(C)O3)C(N(C)C)C2O)C(CC=O)CC(C)C(=O)C=CC(C)=CC1COC1OC(C)C(O)C(OC)C1OC (configuration not stated) [Tylosin] |
| 11.2 | CCCCC(=O)N(Cc1ccc(-c2ccccc2-c2nn[nH]n2)cc1)C(C(=O)O)C(C)C (configuration not stated) [Valsartan] |
| 7.3 | COc1ccc(CCN(C)CCCC(C#N)(c2ccc(OC)c(OC)c2)C(C)C)cc1OC (configuration not stated) [Verapamil] |
